Data reported in US5102912A, “Hydroxyoctadecadienic acid for the treatment of estrogen-dependent disease” (Kanoldt Arzneimittel GmbH, priority 1990, dated 1992).

Experiments:
[1] = Storage stability of the prepared acid; type: physicochemical
aromatase [2] = target: T1, aromatase (Homo sapiens, UniProt P11511); assay: Inhibition of aromatase activity, placenta microsomes, substrate androstenedione 10 nM (Example 3); type: biochemical; settings: 10 min
T1 construct: suspension of human placenta microsomes as a source of aromatase enzyme; from tissue; host or cells: human placenta microsomes
T1 sequence (P11511 1-503): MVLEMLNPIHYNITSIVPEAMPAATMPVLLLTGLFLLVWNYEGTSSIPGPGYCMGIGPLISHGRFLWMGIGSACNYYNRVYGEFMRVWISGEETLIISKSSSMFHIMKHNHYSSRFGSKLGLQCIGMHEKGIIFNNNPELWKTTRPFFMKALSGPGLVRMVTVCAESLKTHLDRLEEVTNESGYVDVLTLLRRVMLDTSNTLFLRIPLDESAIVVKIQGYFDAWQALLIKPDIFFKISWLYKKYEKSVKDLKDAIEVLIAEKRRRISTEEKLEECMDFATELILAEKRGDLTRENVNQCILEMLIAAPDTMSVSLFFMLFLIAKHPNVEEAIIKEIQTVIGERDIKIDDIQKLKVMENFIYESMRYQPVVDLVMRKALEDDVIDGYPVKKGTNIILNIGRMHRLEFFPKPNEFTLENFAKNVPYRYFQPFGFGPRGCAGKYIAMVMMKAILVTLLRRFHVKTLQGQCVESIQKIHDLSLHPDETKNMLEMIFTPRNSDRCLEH
Method: Inhibitor tests were carried out with a suspension of human placenta microsomes as a source of aromatase enzyme. The substrate used in these competitive inhibition tests was androstenedione.
Experimental conditions for enzyme inhibition
enzyme source: placenta microsomes
substrate: androstenedione (10 nM)
tracer: ^3 H-androstenedione
Co-substrate: NADPH-regenerating system
The substrate, ^3 H-androstenedione was incubated in the presence of aromatase enzyme with and without the acid inhibitor. The aromatization of androstenedione to estradiol was measured by the release of ^3 H2 O in the process of aromatization. Aromatase activity in the presence of 9-hydroxy-10(trans)-12(cis)-octadecadienoic acid was compared with that of a control group without this inhibiting additive. Aromatase activity is shown as percent of reaction in table 2.

aromatase [3] = target: T1, aromatase; assay: Inhibition of aromatase activity, placenta microsomes, substrate androstenedione 100 nM (Example 4); type: biochemical
[4] = Effect in the treatment of estrogen-dependent diseases, keto form compared with hydroxy compound

| Compound | storage stability ([1]; even at minus 20° C) | activity at 1 µg/mL (aromatase [2]; inhibitor 1 mg/l, without inhibitor 100 ± 9.1, read-out: Aromatase Activity (% reaction) with inhibitor) | activity at 10 µg/mL (aromatase [2]; inhibitor 10 mg/l, without inhibitor 100 ± 8.1, read-out: Aromatase Activity (% reaction) with inhibitor) | activity at 100 µg/mL (aromatase [2]; inhibitor 100 mg/l, without inhibitor 100 ± 5.5, read-out: Aromatase Activity (% reaction) with inhibitor) | activity at 1 µg/mL (aromatase [3]; 10 min, inhibitor 1 mg/l, androstenedione 100 nM, 10 minutes, average value ± S.D. (n = 3), without inhibitor 100 ± 9.1, read-out: Aromatase activity (% reaction) with inhibitor) | activity at 10 µg/mL (aromatase [3]; 10 min, inhibitor 10 mg/l, androstenedione 100 nM, 10 minutes, average value ± S.D. (n = 3), without inhibitor 100 ± 8.1, read-out: Aromatase activity (% reaction) with inhibitor) | activity at 100 µg/mL (aromatase [3]; 10 min, inhibitor 100 mg/l, androstenedione 100 nM, 10 minutes, average value ± S.D. (n = 3), without inhibitor 100 ± 5.5, read-out: Aromatase activity (% reaction) with inhibitor) | inhibition of aromatase (in words) (aromatase [3]; Example 4, table 4) | aromatase inhibiting effect relative to the acid in hydroxy form (aromatase [3]; from tables 2 and 4, displacement with respect to the concentration of the inhibitor) | effect by comparison with the hydroxy compound [4] | stability compared with the product of Example 1 [1] |
| --- | --- | --- | --- | --- | --- | --- | --- | --- | --- | --- | --- |
| CCCCC/C=C\C=C\C(O)CCCCCCCC(=O)O (stereo not drawn) [9-hydroxy-10(trans)-12(cis)-octadecadienic acid] | only storable to a limited extent even at minus 20 °C | 94.4 ± 1.2% | 53.8 ± 3.8% | 16.2 ± 3.2% |  |  |  |  |  |  |  |
| CCCCC/C=C\C=C\C(=O)CCCCCCCC(=O)O [9-oxo-10(trans)-12(cis)-octadecadienic acid] |  |  |  |  | 58.3 ± 3.6% | 19.3 ± 3.4% | 6.2 ± 2.9% | stronger aromatase inhibiting effect | about 10 times stronger | 10 fold | equally unstable as the product of Example 1 |
